Data: patent US20250332176A1, “TREATMENT FOR FIBROSIS AND INHIBITION OF FIBROSIS” (GALMED RESEARCH AND DEVELOPMENT LTD, priority 2022, published 2025)

Tested on: Male C57BL/12 mice
Experiment: Bleomycin (BLM)-induced pulmonary fibrosis model
Type: in vivo
Conditions: bleomycin 1.5 U/kg intratracheal, prophylactic, day 0→21
Experimental: The following model was employed: • Male C57BL/12 mice,22-26 g • Induction by administration of Bleomycin (1.5 U/kg), intratracheal • Ref. Comp.: Pirfenidone, 100 mg/kg, p.o., BID • Treatment Mode: Prophylactic (from day 0→21)
Pulmonary fibrosis was induced by bleomycin (BLM) and treated with aramchol (meglumine salt). As a reference, results for the known anti-idiophatic pulmonary fibrosis agent pirfenidone are also presented, in FIGS. 26A-26B, where hydroxyproline was used as biomarker for fibrosis (hydroxyproline use as idiophatic pulmonary fibrosis biomarker is disclosed in “Lung fibrosis is ameliorated by pirfenidone fed in diet after the second dose in a three-dose bleomycin-hamster model”, Iyer, Swarnalatha N.; Margolin, S. B.; Hyde, D. M.; Giri, S. N.; Experimental Lung Research (1998), 24(1), 119-132; and “Simple determination of L-hydroxyproline in idiopathic pulmonary fibrosis lung tissues of rats using non-extractive high-performance liquid chromatography coupled with fluorescence detection after pre-column derivatization with novel synthetic 9-acetylimidazol-carbazole”, Ren, Y.; Zhao, J.; Shi, Y.; Chen, C.; Chen, X.; Lv, C.; Journal of Pharmaceutical and Biomedical Analysis 2017, 142, 1-6).

CCCCCCCCCCCCCCCCCCCC(=O)N[C@H]1CC[C@@]2(C)[C@@H](C1)C[C@@H](O)[C@@H]1[C@@H]2C[C@H](O)[C@]2(C)[C@@H]([C@H](C)CCC(=O)O)CC[C@@H]12 [aramchol]
histopathology of the lungs (H&E, COL1A1, aSMA; FIG. 27): very similar to the one of pirfenidone | Ashcroft score, COL1A1 and aSMA quantification (FIGS. 28A-28E) (compared to pirfenidone): treats the fibrosis in better (higher) extent and has more significant effect

Cc1ccc(=O)n(-c2ccccc2)c1 [pirfenidone, reference compound]
histopathology of the lungs (H&E, COL1A1, aSMA; FIG. 27): much more similar to the one without the fibrosis
